Columns and labels:
Human κ-Opioid (KOP) = target: T1, Human κ-Opioid (KOP) (Homo sapiens, UniProt P41145); experiment: Radioligand binding, human κ-opioid (KOP) membranes, filtration, [3H]-Diprenorphine; conditions: compound at 10 μM; [3H]-Diprenorphine
T1 construct: purchased Perkin Elmer Biosignal
Procedure, shortened: (§1)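 Percent inhibition of radioligand binding measured on recombinant human membranes: NK1 with [125I]-Substance P, KOP with [3H]-Diprenorphine. Incubation 1 h at room temperature, then harvest onto 0.3% PEI-soaked filters, cold Tris-HCl pH 7.4 washes and scintillation counting; non-specific binding from reference ligand wells.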

Human opioid (ORL1) = target: T2, Human opioid (ORL1) (Homo sapiens, UniProt P41146); experiment: Radioligand binding, human opioid ORL1 membranes, FlashPlate, [125I]-Nociceptin; conditions: compound at 10 μM; [125I]-Nociceptin
T2 construct: purchased Perkin Elmer Biosignal
Procedure, shortened: (§2)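 Cloned human receptor membranes were coated onto FlashPlate wells and incubated with radioligand and compound (added from a 0.5 mM DMSO daughter plate) for 1 hour at room temperature in the dark. Scintillation counting gave percent inhibition, with DMSO defining total and reference ligand defining non-specific binding.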

[1] = target: T3, Human neuropeptide Y (NPY-Y1) (Homo sapiens, UniProt P25929); experiment: Radioligand binding, human neuropeptide Y NPY-Y1 membranes, FlashPlate, [125I]-PYY; conditions: compound at 10 μM; [125I]-PYY
T3 construct: purchased Perkin Elmer Biosignal
T3 sequence (P25929 1-384): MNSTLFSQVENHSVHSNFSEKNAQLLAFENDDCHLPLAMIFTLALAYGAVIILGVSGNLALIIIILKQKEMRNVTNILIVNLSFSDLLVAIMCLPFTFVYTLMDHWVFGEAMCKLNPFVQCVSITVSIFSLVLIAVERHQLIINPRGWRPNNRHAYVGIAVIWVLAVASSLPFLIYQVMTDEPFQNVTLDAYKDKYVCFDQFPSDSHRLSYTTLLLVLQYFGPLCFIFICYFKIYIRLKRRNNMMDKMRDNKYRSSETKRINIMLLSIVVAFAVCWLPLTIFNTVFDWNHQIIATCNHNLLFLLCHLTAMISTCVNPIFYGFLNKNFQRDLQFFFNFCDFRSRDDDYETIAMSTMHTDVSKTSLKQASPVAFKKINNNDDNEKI
Procedure, shortened: as §2

Human melanocortin (MC5) = target: T4, Human melanocortin (MC5) (Homo sapiens, UniProt P33032); experiment: Radioligand binding, human melanocortin MC5 membranes, FlashPlate, [125I]-NDP-αMSH; conditions: compound at 10 μM; [125I]-NDP-αMSH
T4 construct: purchased Perkin Elmer Biosignal
Procedure, shortened: as §2

Human Melanocortin (MC4) = target: T5, Human Melanocortin (MC4) (Homo sapiens, UniProt P32245); experiment: Radioligand binding, human melanocortin MC4 membranes, FlashPlate, [125I]-NDP-αMSH; conditions: compound at 10 μM; [125I]-NDP-αMSH
T5 construct: purchased Perkin Elmer Biosignal
Procedure, shortened: as §2

Human μ-opioid (MOP) = target: T6, Human μ-opioid (MOP) (Homo sapiens, UniProt P35372); experiment: Radioligand binding, human μ-opioid (MOP) membranes, FlashPlate, [3H]-Naloxone; conditions: compound at 10 μM; [3H]-Naloxone
T6 construct: purchased Perkin Elmer Biosignal
Procedure, shortened: as §2

Human neurokinin (NK1) = target: T7, Human neurokinin (NK1) (Homo sapiens, UniProt P25103); experiment: Radioligand binding, human neurokinin NK1 membranes, filtration, [125I]-Substance P; conditions: compound at 10 μM; [125I]-Substance P
T7 construct: purchased Perkin Elmer Biosignal
Procedure, shortened: as §1

Mouse urotensin (mUR2) = target: T8, Mouse urotensin (mUR2) (Mus musculus, UniProt Q8VIH9); experiment: Radioligand binding, mouse urotensin mUR2 membranes, FlashPlate, [125I]-Urotensin II; conditions: compound at 10 μM; [125I]-Urotensin II
T8 construct: purchased Perkin Elmer Biosignal
T8 sequence (Q8VIH9 1-385): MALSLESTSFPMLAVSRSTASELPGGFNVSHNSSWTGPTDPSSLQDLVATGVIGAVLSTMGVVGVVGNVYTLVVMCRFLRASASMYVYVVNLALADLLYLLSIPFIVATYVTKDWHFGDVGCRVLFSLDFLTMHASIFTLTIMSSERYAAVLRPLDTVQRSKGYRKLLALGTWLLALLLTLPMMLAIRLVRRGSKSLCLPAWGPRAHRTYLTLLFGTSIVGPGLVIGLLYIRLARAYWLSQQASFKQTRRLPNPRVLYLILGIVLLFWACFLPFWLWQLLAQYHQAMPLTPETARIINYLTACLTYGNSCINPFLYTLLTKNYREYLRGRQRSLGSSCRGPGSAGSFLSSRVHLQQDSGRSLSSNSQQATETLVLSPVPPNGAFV
Procedure, shortened: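 Cloned mouse urotensin (mUR2) receptor membranes from Perkin Elmer Biosignal were immobilized in FlashPlate microplates using a proprietary coating. Each well got 19.5 μl buffer, then 0.5 μl of DMSO, reference ligand, or compound. Adding 5 μl of [125I]-Urotensin II, diluted to 5× final concentration in binding buffer, started binding. Plates were sealed with TopSeal-A and incubated 1 hour at room temperature in the dark. Wells were counted for 30 seconds each on a TopCount after a 60-second delay, and percentage inhibition was calculated.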

Human δ-opioid (DOP) = target: T9, Human δ-opioid (DOP) (Homo sapiens, UniProt P41143); experiment: Radioligand binding, human δ-opioid (DOP) membranes, FlashPlate, [3H]-Bremazocine; conditions: compound at 10 μM; [3H]-Bremazocine
T9 construct: purchased Perkin Elmer Biosignal
Procedure, shortened: as §2

Human Melanocortin (MC3) = target: T10, Human Melanocortin (MC3) (Homo sapiens, UniProt P41968); experiment: Radioligand binding, human melanocortin MC3 membranes, FlashPlate, [125I]-NDP-αMSH; conditions: compound at 10 μM; [125I]-NDP-αMSH
T10 construct: purchased Perkin Elmer Biosignal
Procedure, shortened: as §2

[2] = target: T11, Human melanin-concentrating hormone (MCH1) (Homo sapiens, UniProt Q99705); experiment: Radioligand binding, human melanin-concentrating hormone MCH1 membranes, FlashPlate, [125I]-S36057; conditions: compound at 10 μM; [125I]-S36057
T11 construct: purchased Perkin Elmer Biosignal
Procedure, shortened: as §2

T11 sequence (Q99705 whole entry): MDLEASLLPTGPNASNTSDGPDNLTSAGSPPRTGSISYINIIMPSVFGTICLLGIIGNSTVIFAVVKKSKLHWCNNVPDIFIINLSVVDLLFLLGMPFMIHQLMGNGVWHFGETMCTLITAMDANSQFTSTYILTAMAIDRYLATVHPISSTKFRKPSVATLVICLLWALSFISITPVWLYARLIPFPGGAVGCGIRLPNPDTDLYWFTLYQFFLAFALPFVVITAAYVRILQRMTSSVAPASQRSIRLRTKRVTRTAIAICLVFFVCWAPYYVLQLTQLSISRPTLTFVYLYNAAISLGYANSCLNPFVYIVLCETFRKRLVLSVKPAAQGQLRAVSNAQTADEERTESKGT
T9 sequence (P41143 whole entry): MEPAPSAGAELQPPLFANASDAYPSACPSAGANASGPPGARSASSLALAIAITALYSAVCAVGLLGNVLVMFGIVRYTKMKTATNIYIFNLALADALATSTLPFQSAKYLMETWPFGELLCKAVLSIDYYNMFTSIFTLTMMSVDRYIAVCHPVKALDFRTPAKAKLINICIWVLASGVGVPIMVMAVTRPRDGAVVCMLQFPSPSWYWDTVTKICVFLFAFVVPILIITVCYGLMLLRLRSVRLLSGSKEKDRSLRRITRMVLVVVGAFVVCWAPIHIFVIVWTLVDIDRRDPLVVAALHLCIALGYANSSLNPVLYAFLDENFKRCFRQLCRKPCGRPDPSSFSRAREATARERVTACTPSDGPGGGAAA
T4 sequence (P33032 whole entry): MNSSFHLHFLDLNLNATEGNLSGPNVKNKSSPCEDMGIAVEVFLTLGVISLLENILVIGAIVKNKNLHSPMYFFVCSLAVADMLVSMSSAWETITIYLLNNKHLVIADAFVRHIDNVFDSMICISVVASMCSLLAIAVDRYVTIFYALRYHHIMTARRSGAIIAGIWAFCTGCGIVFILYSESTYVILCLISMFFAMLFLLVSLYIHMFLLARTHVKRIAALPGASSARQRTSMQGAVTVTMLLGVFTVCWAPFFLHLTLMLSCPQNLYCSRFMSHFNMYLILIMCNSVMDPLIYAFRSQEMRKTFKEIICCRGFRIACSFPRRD
T10 sequence (P41968 whole entry): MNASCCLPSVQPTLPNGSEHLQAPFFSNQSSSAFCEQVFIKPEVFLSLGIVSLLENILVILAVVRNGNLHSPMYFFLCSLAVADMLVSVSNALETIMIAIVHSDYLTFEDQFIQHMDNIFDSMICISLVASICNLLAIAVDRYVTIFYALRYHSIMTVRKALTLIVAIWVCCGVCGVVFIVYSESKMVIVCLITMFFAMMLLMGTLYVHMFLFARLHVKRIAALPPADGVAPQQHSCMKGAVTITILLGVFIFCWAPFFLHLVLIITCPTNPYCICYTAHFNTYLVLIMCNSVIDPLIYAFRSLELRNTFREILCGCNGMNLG
T7 sequence (P25103 whole entry): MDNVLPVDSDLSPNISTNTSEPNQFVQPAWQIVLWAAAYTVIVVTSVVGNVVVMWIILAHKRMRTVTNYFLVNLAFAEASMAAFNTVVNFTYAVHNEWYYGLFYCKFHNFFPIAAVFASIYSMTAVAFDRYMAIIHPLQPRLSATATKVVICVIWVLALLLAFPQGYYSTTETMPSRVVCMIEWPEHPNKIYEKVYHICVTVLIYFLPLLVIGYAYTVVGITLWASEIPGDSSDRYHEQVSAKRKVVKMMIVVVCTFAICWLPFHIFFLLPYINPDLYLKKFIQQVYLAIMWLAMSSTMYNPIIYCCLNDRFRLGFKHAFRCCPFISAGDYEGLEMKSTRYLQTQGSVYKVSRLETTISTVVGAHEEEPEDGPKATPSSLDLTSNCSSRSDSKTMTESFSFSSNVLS
T5 sequence (P32245 whole entry): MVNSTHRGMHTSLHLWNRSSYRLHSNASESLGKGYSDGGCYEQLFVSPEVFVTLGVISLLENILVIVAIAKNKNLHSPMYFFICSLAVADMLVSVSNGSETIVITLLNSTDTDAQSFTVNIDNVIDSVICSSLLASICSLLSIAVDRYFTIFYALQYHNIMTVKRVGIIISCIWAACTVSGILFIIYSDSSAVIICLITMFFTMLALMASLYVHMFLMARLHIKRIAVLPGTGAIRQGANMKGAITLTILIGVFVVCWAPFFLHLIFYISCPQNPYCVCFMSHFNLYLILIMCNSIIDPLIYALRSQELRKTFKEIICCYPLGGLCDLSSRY
T1 sequence (P41145 whole entry): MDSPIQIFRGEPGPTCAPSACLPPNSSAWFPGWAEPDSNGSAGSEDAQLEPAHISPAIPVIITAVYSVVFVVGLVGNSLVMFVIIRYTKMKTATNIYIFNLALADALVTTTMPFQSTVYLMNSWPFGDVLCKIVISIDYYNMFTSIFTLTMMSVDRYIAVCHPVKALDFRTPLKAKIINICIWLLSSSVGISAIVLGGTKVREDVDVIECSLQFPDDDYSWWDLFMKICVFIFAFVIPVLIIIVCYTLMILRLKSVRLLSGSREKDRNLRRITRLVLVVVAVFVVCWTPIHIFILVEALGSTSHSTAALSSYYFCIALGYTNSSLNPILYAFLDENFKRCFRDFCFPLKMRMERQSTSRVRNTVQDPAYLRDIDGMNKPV
T2 sequence (P41146 whole entry): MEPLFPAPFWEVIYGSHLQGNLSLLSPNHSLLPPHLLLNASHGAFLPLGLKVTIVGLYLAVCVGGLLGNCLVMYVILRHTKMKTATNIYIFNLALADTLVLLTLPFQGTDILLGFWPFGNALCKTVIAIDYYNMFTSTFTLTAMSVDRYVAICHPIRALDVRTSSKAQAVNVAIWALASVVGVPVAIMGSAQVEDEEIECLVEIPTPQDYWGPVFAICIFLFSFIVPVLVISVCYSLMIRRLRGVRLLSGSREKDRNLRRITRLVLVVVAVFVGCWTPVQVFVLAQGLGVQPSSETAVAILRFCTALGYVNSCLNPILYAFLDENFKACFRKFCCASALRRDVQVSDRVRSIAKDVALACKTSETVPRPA
T6 sequence (P35372 whole entry): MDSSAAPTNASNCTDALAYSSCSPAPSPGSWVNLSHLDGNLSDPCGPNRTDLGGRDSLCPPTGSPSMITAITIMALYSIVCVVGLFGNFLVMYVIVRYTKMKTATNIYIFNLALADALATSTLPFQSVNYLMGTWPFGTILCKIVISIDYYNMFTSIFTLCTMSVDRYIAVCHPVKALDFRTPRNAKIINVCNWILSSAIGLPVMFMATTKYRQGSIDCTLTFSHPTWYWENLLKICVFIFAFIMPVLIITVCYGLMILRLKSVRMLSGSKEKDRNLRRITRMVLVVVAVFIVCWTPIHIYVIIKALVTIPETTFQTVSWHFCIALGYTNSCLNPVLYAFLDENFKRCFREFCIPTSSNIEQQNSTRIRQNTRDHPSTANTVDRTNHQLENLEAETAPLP

Compound | A2 radioligand binding, percentage inhibition (Human κ-Opioid (KOP)) | A10 radioligand binding, percentage inhibition (Human opioid (ORL1)) | A9 radioligand binding, percentage inhibition [1] | A5 radioligand binding, percentage inhibition (Human melanocortin (MC5)) | A4 radioligand binding, percentage inhibition (Human Melanocortin (MC4)) | A7 radioligand binding, percentage inhibition (Human μ-opioid (MOP)) | A8 radioligand binding, percentage inhibition (Human neurokinin (NK1)) | A11 radioligand binding, percentage inhibition (Mouse urotensin (mUR2)) | A1 radioligand binding, percentage inhibition (Human δ-opioid (DOP)) | A3 radioligand binding, percentage inhibition (Human Melanocortin (MC3)) | A6 radioligand binding, percentage inhibition [2]
[N-]=[N+]=N[C@H]1C(OCCNC(=N)N)O[C@H](COCc2ccc3ccccc3c2)[C@@H](O)[C@@H]1OCc1ccccc1 (stereo partly shown) [compound 126] | − (“−” indicates less than 50% inhibition at 10 μM) | − (“−” indicates less than 50% inhibition at 10 μM) | − (“−” indicates less than 50% inhibition at 10 μM) | + (“+” indicates greater than 50% inhibition at 10 μM) | + (“+” indicates greater than 50% inhibition at 10 μM) | − (“−” indicates less than 50% inhibition at 10 μM) | + (“+” indicates greater than 50% inhibition at 10 μM) | − (“−” indicates less than 50% inhibition at 10 μM) | − (“−” indicates less than 50% inhibition at 10 μM) | − (“−” indicates less than 50% inhibition at 10 μM) | + (“+” indicates greater than 50% inhibition at 10 μM)
[N-]=[N+]=N[C@H]1C(OCCNC(=N)N)O[C@H](COCc2ccccc2)[C@@H](O)[C@@H]1OCc1ccc2ccccc2c1 (stereo partly shown) [compound 127] | − (“−” indicates less than 50% inhibition at 10 μM) | − (“−” indicates less than 50% inhibition at 10 μM) | − (“−” indicates less than 50% inhibition at 10 μM) | + (“+” indicates greater than 50% inhibition at 10 μM) | + (“+” indicates greater than 50% inhibition at 10 μM) | − (“−” indicates less than 50% inhibition at 10 μM) | + (“+” indicates greater than 50% inhibition at 10 μM) | − (“−” indicates less than 50% inhibition at 10 μM) | − (“−” indicates less than 50% inhibition at 10 μM) | − (“−” indicates less than 50% inhibition at 10 μM) | − (“−” indicates less than 50% inhibition at 10 μM)
COC1O[C@H](COCC(=O)O)[C@@H](O)[C@H](OCc2ccccc2)[C@H]1NC(=O)c1cnc[nH]1 (stereo partly shown) [compound 128] | − (“−” indicates less than 50% inhibition at 10 μM) | − (“−” indicates less than 50% inhibition at 10 μM) | − (“−” indicates less than 50% inhibition at 10 μM) | − (“−” indicates less than 50% inhibition at 10 μM) | − (“−” indicates less than 50% inhibition at 10 μM) | − (“−” indicates less than 50% inhibition at 10 μM) | + (“+” indicates greater than 50% inhibition at 10 μM) | − (“−” indicates less than 50% inhibition at 10 μM) | − (“−” indicates less than 50% inhibition at 10 μM) | − (“−” indicates less than 50% inhibition at 10 μM) | − (“−” indicates less than 50% inhibition at 10 μM)
COC[C@H]1OC(OCc2ccc(-c3ccccc3)cc2)[C@H](NC(=O)CNC(=N)N)[C@@H](OCc2cccc(O)c2)[C@@H]1O (stereo partly shown) [compound 129] | − (“−” indicates less than 50% inhibition at 10 μM) | − (“−” indicates less than 50% inhibition at 10 μM) | − (“−” indicates less than 50% inhibition at 10 μM) | − (“−” indicates less than 50% inhibition at 10 μM) | − (“−” indicates less than 50% inhibition at 10 μM) | + (“+” indicates greater than 50% inhibition at 10 μM) | − (“−” indicates less than 50% inhibition at 10 μM) | − (“−” indicates less than 50% inhibition at 10 μM) | − (“−” indicates less than 50% inhibition at 10 μM) | − (“−” indicates less than 50% inhibition at 10 μM) | − (“−” indicates less than 50% inhibition at 10 μM)
COC[C@H]1OC(OCc2ccc(-c3ccccc3)cc2)[C@H](NC(=O)CCNC(=N)N)[C@@H](OCc2cccc(O)c2)[C@@H]1O (stereo partly shown) [compound 130] | − (“−” indicates less than 50% inhibition at 10 μM) | − (“−” indicates less than 50% inhibition at 10 μM) | − (“−” indicates less than 50% inhibition at 10 μM) | − (“−” indicates less than 50% inhibition at 10 μM) | − (“−” indicates less than 50% inhibition at 10 μM) | + (“+” indicates greater than 50% inhibition at 10 μM) | − (“−” indicates less than 50% inhibition at 10 μM) | − (“−” indicates less than 50% inhibition at 10 μM) | − (“−” indicates less than 50% inhibition at 10 μM) | − (“−” indicates less than 50% inhibition at 10 μM) | − (“−” indicates less than 50% inhibition at 10 μM)
